The values below come from a melting point compilation (Tetko et al.; mined from patent text by program, amines drawn as free bases though some values may be those of a salt).

By melting point is commonly meant the temperature, or range, at which the solid turns liquid. The molecule `Nc1cc(Cl)c(Br)cc1[N+](=O)[O-]` returned a melting point of 185 to 195 °C. For `CC(Oc1ncn(-c2cccc(Br)c2)n1)C(=O)NC1CC1` (configuration not stated), the melting point is 134 to 135 °C. `CC1(C)Cc2c(sc(N)c2C(N)=O)C(C)(C)C1` came in with a melting point of 140 to 145 °C. With `NN1C=Nc2ccc(Cl)cc2C1(O)c1ccccc1` (configuration not stated), the melting point fell in the range of 157 to 158 °C. Turning to `Cc1c(N2CC[C@H](NC(=O)OC(C)(C)C)C2)c(F)c(N)c2c(=O)c(C(=O)O)cn(C3CC3)c12`, the melting point fell in the range of 135 to 136 °C. `CCOC(=O)c1cccnc1Oc1cncc(Cl)c1`: the melting point was in the range of 65 to 69 °C. Regarding `O=C(OCCc1ccccc1)ON1C(=O)CCC1=O`, the melting point fell in the range of 69 to 72 °C. With `Cc1cc(C)nc(NC(=O)NS(=O)(=O)C2CCCCCCCCCCC2Cl)n1` (configuration not stated), the melting point amounted to 84 °C. In turn, `CN(C)c1ccc2c(c1)C(=O)N(c1ccc3c(c1)CCN3C)C2` returned a melting point of 268 to 270 °C.

In turn, `COc1ccc(O)c(CC=Cc2ccccc2C#N)c1` displayed a melting point of 72 to 74 °C. `C#CCCCCOc1ccc(/C=C/C(=O)Nc2ccccc2C(=O)O)cc1OC`: the melting point fell in the range of 148 to 150 °C. For `Nc1ccc(S(=O)(=O)c2cnc(N)s2)cc1`, the melting point is 218 to 219 °C. The value for `O=C1CC(O)c2ccc(F)cc21` (configuration not stated) was 73 to 76 °C.

`CCc1cccc2cc(C(C)=O)oc12` returned a melting point of 59 to 60 °C.

`CS(=O)(=O)c1ccc(-c2nc(C(F)(F)F)[nH]c2-c2ccc(Cl)c(Cl)c2)cc1` gave a melting point of 249 to 251 °C.

`Cc1nnc(-c2ccccc2F)n2nc(OCc3ncnn3C)c(-c3ccoc3)c12` returned a melting point of 150 to 153 °C. Take `C[Si](C)(C)c1cc(CCC(=O)O)co1`: the melting point came to 25 °C. Turning to `OCc1nccc(N2CCCC2)n1`, the melting point lay within 114 to 116 °C. `COC(=O)[C@H]1C[C@H](NC(=O)Oc2ccccc2)c2c(Cl)cc(Cl)cc2N1` (relative stereo) yielded a melting point of 159 to 161 °C.

Regarding `CC(=O)Nc1ccc(C2=NNC(=S)NC2C)cc1` (configuration not stated), the melting point lay in the range of 222 to 226 °C. As for `CN(C)c1ccc2nnc(-c3ncc([N+](=O)[O-])n3C)n2n1`, the figure is 233 to 236 °C; as for `COc1cc(C=C[N+](=O)[O-])c2c(c1OC)CCC2`, 128 to 130 °C; as for `OC1c2ccccc2-c2[nH]nc(-c3ccccc3)c21` (configuration not stated), 269 to 272 °C. The value for `N=C(NO)c1ccc(-c2cnc(-c3ccc(C(=N)NO)cc3)nc2)cc1` was 290 to 292 °C. For the molecule `O=S1(=O)c2ccccc2N(c2ccc(-c3nc4ccccc4n3-c3ccccc3)cc2)c2ccccc21`, the melting point lay within 286 to 288 °C. `COc1cc2c(Cl)c(C(=O)Cl)sc2cc1OCc1ccccc1` had a melting point of 144 to 152 °C. With `CCCCC(=O)Oc1cccc(NC(=O)C=C(C)OC)c1`, the melting point was 84 °C. `COc1cc2cc3ncc(C#N)c(Nc4ccc(Oc5ccccc5)c(Cl)c4)c3cc2cc1OCCN1CCOCC1` registered a melting point of 251 to 253 °C. `CC(=O)N(C1=C(NC2CC2)C(=O)c2c(cnn2C)C1=O)C1CC1` gave a melting point of 75 to 78 °C. The value for `CS(=O)(=O)NCCC1(C[N+](=O)[O-])CCCCC1` was 86 to 88 °C; that for `CCC(O)(c1ccccc1)c1ccc(C(=O)O)cc1` (configuration not stated) was 128 to 130 °C; that for `Cn1c(-c2ccccc2Cl)c2ccsc2nc1=O` was 190 to 192 °C. As for `CCCCCCCCCCCCCCCCC#CCO`, the figure is 60 °C. As for `CN1CC2CN(C)CC(C1)C2OCc1ccccc1` (configuration not stated), the figure is 70 to 75 °C; as for `Nc1nc(NCCNc2ccccc2)nc(-c2cc(Cl)ccc2Cl)n1`, 139 to 141 °C; as for `CC(C)CNC(=O)c1ccc(C(=O)O)cc1[N+](=O)[O-]`, 255 to 257 °C. Molecule `COC(=O)COC(=O)C(Cl)=Cc1cc(-n2ncc(C(F)(F)F)c(C)c2=O)c(F)cc1Cl` gave a melting point of 88 to 91 °C. `COc1ccc(S(=O)(=O)[C@H](CCCCc2ccccc2)[C@@H](CCS(=O)(=O)c2ccccc2)C(=O)NO)cc1OC` displayed a melting point of 78 to 81 °C. `CN(C)CC(=O)N1c2ccccc2N(C)C(=O)c2cnc(-c3ccccc3)nc21`: the melting point was in the range of 207 to 208 °C. `Cn1c(CCNC(=O)c2cc(F)cc3c2OCOC3)nc(-c2ccncn2)cc1=O` gave a melting point of 207 to 209 °C.

Regarding `CCC1c2cccn2-c2ccc(F)cc2N1C(=O)c1ccc(OC)cc1OC` (configuration not stated), the melting point lay within 131 to 132 °C. Molecule `O=C(O)c1cc(S(=O)(=O)N2CCC(CO)CC2)ccc1Cl` gave a melting point of 185 to 187 °C. Molecule `COC(=O)C=Cc1cc(O)cc2cc(-c3ccc(O)cc3)oc12` yielded a melting point of 231 to 234 °C.

With `Cc1cc(Oc2ncnc3ccn(C)c23)ccc1NC(=O)Nc1cccc(C(F)(F)F)c1`, the melting point is 213 to 215 °C.

As to `CC1=C(C(=O)NC(C)(C)C)C(c2ccccc2Cl)C(C(=O)OC(C)C)=C(COCCCc2nc3ccccc3n2C)N1` (configuration not stated), the melting point was 216 °C. As for `CC(NC(=O)c1cccnc1Oc1ccc(F)cc1)c1ccc(Cl)s1` (single isomer, unassigned; (+)), the figure is 78 to 80 °C; as for `CCOC1=Nc2c(C)cccc2Nc2ncccc21`, 135 to 136 °C; as for `O=C(c1ccc(F)cc1Cl)N1Cc2cccn2Cc2ccccc21`, 110 to 112 °C. Take `N#Cc1ccccc1Sc1ccc(Cl)cc1`: the melting point was 82 °C. Consider `C=Cc1ccc([C@@H](C)N=Cc2cccc(C)n2)cc1`, for which the melting point amounted to 25 °C. Turning to `CC(=O)N1N=C(c2ccc([N+](=O)[O-])cc2)c2cc(Cl)c(Cl)cc2CC1C` (configuration not stated), the melting point was 198 to 200 °C.

In turn, `O=C(CCCCCCCCCC=C(F)F)Nc1ccccc1Cl` returned a melting point of 54 to 55 °C. The molecule `CC(=O)NCCc1coc2ccc(OCC#N)cc12` had a melting point of 72 to 73 °C. For the molecule `CC(CCn1ccnc1)N=C1c2cccc3cccc(c23)N1C(c1ccccc1)c1ccccc1` (configuration not stated), the melting point was 55 to 64 °C. As to `CCCc1cc(NCc2ccc3c(c2)OCO3)nc(SCC(N)=NO)n1`, the melting point is 145 to 147 °C. The value for `Cc1cc(Br)cnc1CCCCN=C(NC#N)NCc1ccccc1` was 140 to 141 °C; that for `O=C1Cc2cccc(Oc3ccc4ccccc4c3)c2N1` was 195 to 197 °C; that for `CC(C)[C@H](NC(=O)NCc1cccnc1)C(=O)NC(Cc1ccccc1)C(O)C(Cc1ccccc1)NC(=O)[C@@H](NC(=O)OCc1ccccc1)C(C)C` (some centres not stated) was 205 to 206 °C.

The molecule `C=C(C)C(=O)Oc1ccc(S(=O)(=O)N(C(=O)OC(C)(C)C)c2ccccc2)cc1` gave a melting point of 112 to 114 °C. In turn, `CCCC(=O)C1=C(O)CC2(CCC(C)CC2)OC1=O` (configuration not stated) had a melting point of 60 to 63 °C. In turn, `ONCC1CCCCC1` came in with a melting point of 61 to 63 °C. As to `O=C1C(=O)c2ccccc2C2=C1SCC1(CCN(S(=O)(=O)c3c(Cl)nc4sccn34)CC1)O2`, the melting point was 265 to 267 °C.

Molecule `Cc1cccc(C)c1N(CCCC(=O)O)C(=O)CCCN(C(=O)c1ccc(Cl)cc1)c1c(C)cccc1C` came in with a melting point of 129 to 131 °C.

Take `COc1ccc(-c2nc(SC)[nH]c2-c2ccc(OC)cc2)cc1`: the melting point was in the range of 157 to 158 °C. As for `N#CCC(=O)Nc1ccc(-c2ncc(C(=O)O)c(O)n2)cc1`, the melting point was greater than 280 °C. Regarding `O=C1c2ccccc2C(=O)N1C/C=C(\F)COc1ccc(Cl)cc1Cl`, the melting point lay within 115 to 116 °C. `Cc1ccc2c(c1)COC21CCN(CCCCCCN2CCC3(CC2)OCc2cc(C)ccc23)CC1` yielded a melting point of 113 to 116 °C. As for `N#Cc1cc(C=O)cnc1Br`, the melting point was in the range of 105 to 106 °C. Turning to `O=C1OCCN1C(=O)c1ccccc1`, the melting point is 166 to 170 °C. The molecule `CC(C)N(CCOc1cccc2nc(Cl)c3ccccc3c12)C(C)C` yielded a melting point of 88 to 91 °C.

`CCC(=O)Nc1ccccc1C(F)(F)F` showed a melting point of 86 °C.

`CC=CCCCn1cnc2c1c(=O)n(C)c(=O)n2C` showed a melting point of 58 to 64 °C.

`COc1ccc(C(=O)NCc2ccccc2)c2c1oc1ccc(N)cc12` returned a melting point of 228 °C.

As for `COC(=O)C(=O)c1cc2c3c(c1)CCN3CCC2`, the melting point was 102 to 105 °C. As for `O=C1CCCc2nc3ccccc3c(NCCc3ccccc3)c21`, the melting point was in the range of 129 to 132 °C. As for `CC(=O)NC1Cc2cccc3cccc(c23)C1=O` (configuration not stated), the figure is 185 to 186 °C. The value for `COCC1=C(C(=O)OC)C(c2ccccc2Cl)C(C(=O)OC)=C(COC)N1` was 137 to 138 °C; that for `Fc1ccc(Nc2ncnc3cnc(NC4CCC(N5CCOCC5)CC4)nc23)cc1Cl` (configuration not stated) was 233 to 235 °C. The value for `COC(=O)c1c(N)n(C)c2ccccc12` was 192 to 196 °C.

`Cc1nc(OC(F)F)nc(C)c1N1CCCn2c1nc1c(Cl)ccc(C(OC(F)F)C(F)(F)F)c12` (configuration not stated) returned a melting point of 165 to 166 °C. The molecule `O=C(CBr)c1ccc(OCc2ccccc2)c([N+](=O)[O-])c1` showed a melting point of 136 °C. For the molecule `CCCCCCCCCCOc1ccc(OCCCC#CCOC)cc1`, the melting point lay in the range of 33 to 34 °C. In the case of `CCn1nc(C#N)c(Br)c1CC(C)C`, the melting point lay in the range of 50 to 51 °C. The molecule `COc1cc(Nc2c(C#N)cnc3cc(-c4cccc(C=O)c4)sc23)c(Cl)cc1Cl` yielded a melting point of 262 to 263 °C. For `CC1(c2ccccc2NC(c2c(Cl)cccc2Cl)C2CC2)OCCO1` (configuration not stated), the melting point was determined as 151 °C. The value for `O=C(Nc1nnc(Cc2ccc(Cl)cc2)s1)c1ccc2cccnc2c1O` was 276 to 278 °C; that for `CC1CN(c2nc3ccccc3s2)N=C1N` (configuration not stated) was 207 to 209 °C.

In turn, `CN1CC(c2ccccc2)=C(O)C1=O` showed a melting point of 245 to 250 °C. For the molecule `O=C(O)c1cc2cc(F)c(Cl)cc2nc1Cl`, the melting point was 230 °C. Consider `COC(=O)c1ccc(OC)c(C=O)c1O`, for which the melting point lay within 123 to 124 °C.

As for `O=C(c1cc2cc3oc(=O)[nH]c3cc2o1)N1CCC(Cc2ccccc2)CC1`, the melting point was in the range of 205 to 210 °C.

Consider `COC(=O)C1=C(C)Nc2c(c(-c3ccccc3)nn2C)C1c1ccc(F)cc1` (configuration not stated), for which the melting point lay in the range of 181 to 183 °C.
